Source: paper PMC4286191 (MedChemComm, 2014)

Key:
CA46 Burkitt's lymphoma = assay: Cytotoxicity in CA46; format: cell-based
[1] = test system: MCF-10A human breast epithelial cell line; assay: Cytotoxicity in MCF-10A; format: cell-based
[2] = biological target: purified recombinant LSD1 (Homo sapiens, UniProt O60341); assay: Fluorescence-based recombinant LSD1 inhibition assay; format: biochemical; conditions: residual activity at 10 μM; average of 3 determinations ± SEM; Table 2

SMILES	Cytotoxicity in CA46 (CA46 Burkitt's lymphoma)	Cytotoxicity in MCF-10A [1]	% LSD1 Activity (10μM) [2] [%]
COc1ccccc1CNc1n[nH]c(NCc2ccccc2OC)n1 [Compound 7, N^3,N[5]-bis(2-methoxybenzyl)-1H-1,2,4-triazole-3,5-diamine]	no significant cytotoxicity	no significant cytotoxicity	–
N=C(NCCCNCCCCCCCNCCCNC(=N)NC(=N)NCCC(c1ccccc1)c1ccccc1)NC(=N)NCCC(c1ccccc1)c1ccccc1 [Compound 2, verlindamycin]	–	–	33.9 ± 6.7
